Test results from US8372397B2, “Methods for regulation of stem cells” (priority 2004, dated 2013).

Assays:
GSK-3 = settings: Ring et al. 2003 / Cline et al. 2002, cited from earlier work; for EC50: read-out: half-maximal effective concentration [EC50]
[1] = mouse, in vivo, ip, 30 mg/kg
Experimental: (b) Blood glucose levels in peripheral blood of recipient mice following 5-week in vivo administration of 30 mg/kg GSK-3 inhibitor or vehicle control. Error bars represent SEM (n=6).

Compound: O=[N+]([O-])c1ccc(NCCNc2ncc(-c3ncc[nH]3)c(-c3ccc(Cl)cc3Cl)n2)nc1 [CHIR-837]
- selectivity for GSK-3 (GSK-3): > 5,000 fold
- EC50 (GSK-3): 375 nM

Compound: Cc1c[nH]c(-c2cnc(NCCNc3ccc(C#N)cn3)nc2-c2ccc(Cl)cc2Cl)n1 [CHIR-911]
- glycemic state (blood glucose) of transplanted recipients [1]: maintaining a normoglycemic state
